Results published in patent US20230111310A1, “CARBOXYLIC ACID DERIVATIVE-SUBSTITUTED IMINO ARYL COMPOUND, PREPARATION METHOD THEREFOR, HERBICIDAL COMPOSITION AND USE THEREOF” (Qingdao Kingagroot Chemical Compound Co., Ltd., priority 2020, published 2023).

Key:
Experiment in all cases: Weeding effect in post-emergence stage
Format in all cases: in vivo
Settings in all cases: Dose 15 g/ha; fresh weight control rate level
Abutilon theophrasti = test system: Abutilon theophrasti
How it was run: (§1)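 Pot-grown greenhouse plants sprayed at 2–3 leaf stage, 2 weeks after sowing, with compound in acetone/Tween 80 plus methyl oleate emulsifiable concentrate (1.5 liter/ha) at 500–7.5 g/ha. Growth control rated 3 weeks after treatment; mean of three replicates.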

Alopecurus japonicus = test system: Alopecurus japonicus
How it was run: as §1

Digitaria sanguinalis = test system: Digitaria sanguinalis
How it was run: as §1

Eleusine indica = test system: Eleusine indica
How it was run: as §1

Setaria viridis = test system: Setaria viridis
How it was run: as §1

Echinochloa crusgalli = test system: Echinochloa crusgalli
How it was run: as §1

SMILES | Weeding effect in post-emergence stage, Abutilon theophrasti (level) (Abutilon theophrasti) | Weeding effect in post-emergence stage, Alopecurus japonicus (level) (Alopecurus japonicus) | Weeding effect in post-emergence stage, Digitaria sanguinalis (level) (Digitaria sanguinalis) | Weeding effect in post-emergence stage, Eleusine indica (level) (Eleusine indica) | Weeding effect in post-emergence stage, Setaria viridis (level) (Setaria viridis) | Weeding effect in post-emergence stage, Echinochloa crusgalli (level) (Echinochloa crusgalli)
CCOC(=O)C(CC(F)(F)F)O/N=C/c1cc(-n2c(=O)cc(C(F)(F)F)n(C)c2=O)c(F)cc1Cl (stereo not drawn) [Compound 486] | 5 (Level 5: growth control rate is above 85%) | 5 (Level 5: growth control rate is above 85%) | 5 (Level 5: growth control rate is above 85%) | 5 (Level 5: growth control rate is above 85%) | 5 (Level 5: growth control rate is above 85%) | 5 (Level 5: growth control rate is above 85%)
C=CCC(O/N=C/c1cc(-n2c(=O)cc(C(F)(F)F)n(C)c2=O)c(F)cc1Cl)C(=O)OC (stereo not drawn) [Compound 487] | 5 (Level 5: growth control rate is above 85%) | 5 (Level 5: growth control rate is above 85%) | 5 (Level 5: growth control rate is above 85%) | 5 (Level 5: growth control rate is above 85%) | 5 (Level 5: growth control rate is above 85%) | 5 (Level 5: growth control rate is above 85%)
COC(=O)C(O/N=C/c1cc(-n2c(=O)cc(C(F)(F)F)n(C)c2=O)c(F)cc1Cl)C1CCC1 (stereo not drawn) [Compound 488] | 5 (Level 5: growth control rate is above 85%) | 5 (Level 5: growth control rate is above 85%) | 5 (Level 5: growth control rate is above 85%) | 5 (Level 5: growth control rate is above 85%) | 5 (Level 5: growth control rate is above 85%) | 5 (Level 5: growth control rate is above 85%)
COC(=O)C(O/N=C/c1cc(-n2c(=O)cc(C(F)(F)F)n(C)c2=O)c(F)cc1Cl)C1CCCC1 (stereo not drawn) [Compound 489] | 5 (Level 5: growth control rate is above 85%) | 5 (Level 5: growth control rate is above 85%) | 5 (Level 5: growth control rate is above 85%) | 5 (Level 5: growth control rate is above 85%) | 5 (Level 5: growth control rate is above 85%) | 5 (Level 5: growth control rate is above 85%)
COC(=O)C(O/N=C/c1cc(-n2c(=O)cc(C(F)(F)F)n(C)c2=O)c(F)cc1Cl)C1CCCCC1 (stereo not drawn) [Compound 490] | 5 (Level 5: growth control rate is above 85%) | 5 (Level 5: growth control rate is above 85%) | 5 (Level 5: growth control rate is above 85%) | 5 (Level 5: growth control rate is above 85%) | 5 (Level 5: growth control rate is above 85%) | 5 (Level 5: growth control rate is above 85%)
CCSC(=O)C(C)O/N=C/c1cc(-n2c(=O)n(C)c(=O)n(C)c2=O)c(F)cc1Cl (stereo not drawn) [Compound 491] | 5 (Level 5: growth control rate is above 85%) | 5 (Level 5: growth control rate is above 85%) | 5 (Level 5: growth control rate is above 85%) | 5 (Level 5: growth control rate is above 85%) | 5 (Level 5: growth control rate is above 85%) | 5 (Level 5: growth control rate is above 85%)
COC(=O)C(OC)O/N=C/c1cc(-n2c(=O)cc(C(F)(F)F)n(C(OC)C(=O)OC)c2=O)c(F)cc1Cl (stereo not drawn) [Compound 493] | 5 (Level 5: growth control rate is above 85%) | 5 (Level 5: growth control rate is above 85%) | 5 (Level 5: growth control rate is above 85%) | 5 (Level 5: growth control rate is above 85%) | 5 (Level 5: growth control rate is above 85%) | 5 (Level 5: growth control rate is above 85%)
COC(=O)C(OC)(OC)O/N=C/c1cc(-n2c(=O)cc(C(F)(F)F)n(C)c2=O)c(F)cc1Cl [Compound 494] | 5 (Level 5: growth control rate is above 85%) | 5 (Level 5: growth control rate is above 85%) | 5 (Level 5: growth control rate is above 85%) | 5 (Level 5: growth control rate is above 85%) | 5 (Level 5: growth control rate is above 85%) | 5 (Level 5: growth control rate is above 85%)
CC(O/N=C/c1cc(-n2c(=O)cc(C(F)(F)F)n(C)c2=O)c(F)cc1Cl)C(=O)OCc1ccc(Cl)nc1 (stereo not drawn) [Compound 495] | 5 (Level 5: growth control rate is above 85%) | 5 (Level 5: growth control rate is above 85%) | 5 (Level 5: growth control rate is above 85%) | 5 (Level 5: growth control rate is above 85%) | 5 (Level 5: growth control rate is above 85%) | 5 (Level 5: growth control rate is above 85%)
COC(=O)C(CCO)O/N=C/c1cc(-n2c(=O)cc(C(F)(F)F)n(C)c2=O)c(F)cc1Cl (stereo not drawn) [Compound 496] | 5 (Level 5: growth control rate is above 85%) | 5 (Level 5: growth control rate is above 85%) | 5 (Level 5: growth control rate is above 85%) | 5 (Level 5: growth control rate is above 85%) | 5 (Level 5: growth control rate is above 85%) | 5 (Level 5: growth control rate is above 85%)
COC(=O)C(CCCl)O/N=C/c1cc(-n2c(=O)cc(C(F)(F)F)n(C)c2=O)c(F)cc1Cl (stereo not drawn) [Compound 497] | 5 (Level 5: growth control rate is above 85%) | 5 (Level 5: growth control rate is above 85%) | 5 (Level 5: growth control rate is above 85%) | 5 (Level 5: growth control rate is above 85%) | 5 (Level 5: growth control rate is above 85%) | 5 (Level 5: growth control rate is above 85%)
CC(O/N=C/c1cc(-n2c(=O)cc(C(F)(F)F)n(C)c2=O)c(F)cc1Cl)C(=O)OCCC1OCCO1 (stereo not drawn) [Compound 498] | 5 (Level 5: growth control rate is above 85%) | 5 (Level 5: growth control rate is above 85%) | 5 (Level 5: growth control rate is above 85%) | 5 (Level 5: growth control rate is above 85%) | 5 (Level 5: growth control rate is above 85%) | 5 (Level 5: growth control rate is above 85%)
CC(O/N=C/c1cc(-n2c(=O)cc(C(F)(F)F)n(C)c2=O)c(F)cc1Cl)C(N)=O (stereo not drawn) [Compound 499] | 5 (Level 5: growth control rate is above 85%) | 5 (Level 5: growth control rate is above 85%) | 5 (Level 5: growth control rate is above 85%) | 5 (Level 5: growth control rate is above 85%) | 5 (Level 5: growth control rate is above 85%) | 5 (Level 5: growth control rate is above 85%)
CC(Cl)=CCOC(=O)C(C)ON=Cc1cc(-n2c(=O)cc(C(F)(F)F)n(C)c2=O)c(F)cc1Cl (stereo not drawn) [Compound 500] | 5 (Level 5: growth control rate is above 85%) | 5 (Level 5: growth control rate is above 85%) | 5 (Level 5: growth control rate is above 85%) | 5 (Level 5: growth control rate is above 85%) | 5 (Level 5: growth control rate is above 85%) | 5 (Level 5: growth control rate is above 85%)
C=C(Cl)COC(=O)C(C)O/N=C/c1cc(-n2c(=O)cc(C(F)(F)F)n(C)c2=O)c(F)cc1Cl (stereo not drawn) [Compound 501] | 5 (Level 5: growth control rate is above 85%) | 5 (Level 5: growth control rate is above 85%) | 5 (Level 5: growth control rate is above 85%) | 5 (Level 5: growth control rate is above 85%) | 5 (Level 5: growth control rate is above 85%) | 5 (Level 5: growth control rate is above 85%)
